Consider two compounds from US12215106B2, “Pharmaceutical compounds and therapeutic methods” (RUTGERS, THE STATE UNIVERSITY OF NEW JERSEY, priority 2018, dated 2025).

As a reminder, the Papp A→B is how fast a substance crosses the layer from the apical side. As a reminder, the Papp B→A is the apparent permeability from the basolateral to the apical side of a cell layer. One may read the fraction unbound as free concentration divided by total concentration.

SMILES strings stand for the structures.

One data set deals with P-gp. Put plainly: Bi-directional Caco-2 transport assay. The format is in vitro ADME. Conditions: human, Caco-2; efflux ratio >2: potential P-gp substrate; read-out: Efflux Ratio (B-A/A-B). The protocol: (§1) The objective of the study is to evaluate test compounds as substrates for efflux transporter using Caco-2 cell line. To assess the functionality of P-glycoprotein (P-gp), loperamide was run as a positive control (Apical and basolateral HBSS pH 7.4).
(§2) 5 mM DMSO stock of test compounds and loperamide was diluted 1000-folds in HBSS having 0.1% DMSO to prepare concentrations of 5 μM.
(§3) Caco-2 cells were grown in DMEM (20% FBS) until 85-90% confluence. After attaining required confluence, cells were trypsinized and seeded into 24 well millcell plates at a density of 0.6×10^5 cells/insert. The plates were maintained for 21 days at 37° C. in CO2 incubator with change of medium every alternative day. Monolayer integrity was monitored by measuring Trans-epithelial electrical resistance (TEER) from day 15.
(§4) Caco-2 cell monolayer was washed twice with HBSS and incubated for 40 min in CO2 incubator. TEER values were measured and wells showing TEER values above 230 ohms·cm^2 were taken for experiments. The study was performed in loperamide and test compounds by adding 400 μL of loperamide prepared in HBSS in apical (A-B transport) followed by addition of 800 μL of HBSS on basal side and for B-A transport 800 μL of loperamide prepared in HBSS was dosed in basal followed by addition of 400 μL HBSS on apical side. At selected time points (0, 15, 30, 60 and 90 mins) an aliquot of 50 μL was collected from the receiver compartment for determination of test compound concentrations. The volume withdrawn was replaced immediately with HBSS buffer. TEER was measured at the end to the experiment to confirm any damage of monolayer while performing experiment. Those wells with TEER not meeting the criteria were excluded from the study.
(§5) A 50 μL of test compound samples collected at respective time points and submitted for LC-MS/MS analysis.
(§6) The apparent permeability (Papp) (A−B & B−A) of test compounds and positive control was calculated using the following formula: Papp=dQ/dt/A·Co where, dQ/dt=linear slope of test compound concentration in receptor chamber with time (0, 15, 30, 60 and 90 min) after correcting for dilution; A=area of the filter (0.7 cm^2); and Co=initial concentration of compound in the donor compartment.
(§7) Efflux ratio (RE) was calculated using the following equation: RE=PB/A/PA/B where PB/A and PA/B represent the apparent permeability of test compound from the basal to apical and apical to basal side of cell monolayer.
(§8) Recovery represents: (amount of the compound recovered from donor at end of incubation+cumulative amount of compound in acceptor at end of incubation+amount of the compound in cell lysate or assay well)/amount of compound in donor solution at time zero*100
(§9) Compounds are classified based on Papp values as follows:
(§10) A compound having efflux ratio of >2 is considered as having potential as a P-gp substrate.
(Caco-2 cells form a polarised layer with tight junctions and transporters.)

The nature of data set [1]: Bi-directional Caco-2 transport assay. The format is in vitro ADME. Particulars: human, Caco-2, 5 μM. As to the method:
as §1, §2, §3, §4, §5, §6, §7, §8, §9, §10

For a further data set, the system named is mice plasma. Nature of the data set: in vitro. The format is in vitro ADME. Conditions: mouse, plasma, 4 h, 5 μM. The protocol:
(§11) The objective of this study was to evaluate protein binding test compounds in mice plasma. This was accomplished by spiking the test compounds at a concentration of 5 μM into mice plasma and dialyzing against buffer until equilibrium is achieved (4 hours). Analyte area ratios of the test compounds in plasma and buffer were determined to calculate unbound and bound percentages of compound to the plasma proteins.
(§12) Phosphate buffered saline pack (0.1 M sodium phosphate and 0.15 M sodium chloride, pH 7.2) was dissolved in 500 mL of deionized water and pH was adjusted to 7.4 with 0.5 N NaOH.
(§13) 1 mM stock solutions were prepared in DMSO and diluted 200-folds in mice plasma to prepare a concentration of 5 μM. The final DMSO concentration in plasma was 0.5%.
(§14) Rapid equilibrium dialysis was performed with a rapid equilibrium dialysis (RED) device containing dialysis membrane with a molecular weight cut-off of 8,000 Daltons. Each dialysis insert contains two chambers. The red chamber is for plasma while the white chamber is for buffer.
(§15) A 200 μL aliquot of warfarin and test compound at 5 (triplicates) were separately added to the plasma chamber and 350 μL of phosphate buffer saline (pH 7.4) was added to the buffer chamber of the inserts. After sealing the RED device with an adhesive film, dialysis was performed in incubator at 37° C. with shaking at 100 RPM for 4 hours.
(§16) A 50 μL aliquot of warfarin and test compounds were added to four 0.5 mL microfuse tubes. Two aliquots were frozen immediately (0 minute sample). The other two aliquots were incubated at 37° C. for 4 hours along with the RED device.
(§17) Following dialysis, an aliquot of 50 μL was removed from each well (both plasma and buffer side) and diluted with equal volume of opposite matrix (dialyzed with the other matrix) to nullify the matrix effect. Similarly, 50 μL of buffer was added to recovery and stability samples. An aliquot of 100 μL was submitted for LCMS/MS analysis.
(§18) A 25 μL aliquot of warfarin and test compounds were crashed with 100 μL of acetonitrile containing internal standard (glipizide) and vortexed for 5 minutes. The samples were centrifuged at 4000 RPM at 4° C. for 10 min and 100 μL of supernatant was submitted for LC-MS/MS analysis. Samples were monitored for parent compound in MRM mode using LC-MS/MS.
(§19) The peak area ratios (analyte versus internal standard) obtained were used to determine the fraction of compound bound to plasma proteins.

A short description of another data set: in vitro. Conditions: mouse; for fraction unbound at 4 h, 5 μM: plasma. The format is in vitro ADME, mice. The protocol: as §11, §12, §13, §14, §15, §16, §17, §18, §19

With `CN(C)C(=O)C(CCN1CCC(O)(c2ccc(Cl)cc2)CC1)(c1ccccc1)c1ccccc1` [Loperamide, reference compound], in the data set with P-gp, the efflux ratio at 90 min, 5 μM is 5.2. In addition, the Papp A→B at 90 min, 5 μM in data set [1] (HBSS pH 7.4, apical to basal, read-out: Papp (A-B)) stood at 1.6 ± 0.2 ×10⁻⁶ cm/s. Moreover, the Papp B→A at 90 min, 5 μM in data set [1] (HBSS pH 7.4, basal to apical, read-out: Papp (B-A)) came to 8.4 ± 1.2 ×10⁻⁶ cm/s.
For `CC(=O)CC(c1ccccc1)c1c(O)c2ccccc2oc1=O` (stereo not drawn) [Warfarin, reference compound], the “% compound remaining at 4 hrs” value in the data set with mice plasma is listed as 94%. Further, in “in vitro” (Plasma, pH 7.4), the recovery at 4 h, 5 µM turned out to be 109%. The fraction unbound at 4 h, 5 μM in the data set “in vitro” (pH 7.4, % Bound Mean ± SD) was 0.069; in the data set “in vitro” (pH 7.4, % Bound R1), 0.071; in the data set “in vitro” (pH 7.4, % Bound R2), 0.075; in “in vitro” (pH 7.4, % Bound R3), 0.062.
